From patent publication US10670605B2, “Cysteine reactive probes and uses thereof” (The Scripps Research Institute, priority 2015, dated 2020)
Values belong to the compound of their own block, whether it stands above or below them.

Columns and labels:
pro-CASP10 = pro-CASP10 (Homo sapiens, UniProt Q92851); assay: Blockade of probe 61 labeling of pro-CASP10; type: binding
pro-CASP8 = target: T1, pro-CASP8 (Homo sapiens, UniProt Q14790, D374A/D384A); assay: Click probe 61 labeling of pro-CASP8 and its competition; type: binding; settings: 300 nM protein in MDA-MB-231 lysate; read-out: apparent IC50 for blockade of 61 labeling of pro-CASP8
T1 construct: a truncated CASP8 (residues 217-479) without the CARD domain; His6 (C); made in house; host or cells: E. coli BL21(DE3)pLysS
T1 sequence (Q14790 217-479 D374A/D384A): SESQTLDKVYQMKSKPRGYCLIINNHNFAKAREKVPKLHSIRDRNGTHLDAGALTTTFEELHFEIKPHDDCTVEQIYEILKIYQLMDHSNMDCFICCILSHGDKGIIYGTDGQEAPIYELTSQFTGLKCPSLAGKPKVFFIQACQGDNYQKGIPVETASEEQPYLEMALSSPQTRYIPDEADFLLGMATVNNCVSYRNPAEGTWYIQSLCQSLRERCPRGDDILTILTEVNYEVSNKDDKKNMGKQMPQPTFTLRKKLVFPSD

IMPDH2 (C140) = target: T2, IMPDH2 (C140) (Homo sapiens, UniProt P12268); assay: Click probe 18 labeling of recombinant IMPDH2 and its competition; type: binding; settings: for inhibition of 18 labeling of IMPDH2 by nucleotides: 500 μM of each nucleotide
T2 construct: Full length cDNAs encoding for IDH1 (Open Biosystems, Clone ID: 3880331) and IMPDH2 (Open Biosystems, Clone ID: 3447994); His6 (C); made in house; host or cells: E. coli BL21(DE3)

[1] = test system: cysteines in MDA-MB-231 and Ramos cell proteomes; assay: Competitive isoTOP-ABPP in cell lysates (in vitro): proteomic reactivity / liganded cysteine rate; type: binding, human; settings: for proteomic reactivity value (liganded cysteine rate): fragment 500 μM, % of quantified cysteines with R ≥4
Description: All cell lines were obtained from ATCC, were used with a low passage number and were grown at 37° C. with 5% CO2. MDA-MB-231 cells and HEK-293T cells were grown in DMEM supplemented with 10% fetal bovine serum, penicillin, streptomycin and glutamine. Jurkat, Ramos and MUM2C cells were grown in RPMI-1640 medium supplemented with 10% fetal bovine serum, penicillin and streptomycin. For in vitro labeling, cells were grown to 100% confluence for MDA-MB-231 cells or until cell density reached 1.5 million cells/mL for Ramos and Jurkat cells. […] Cell pellets were lysed by sonication and fractionated (100,000 g, 45 min) to yield soluble and membrane fractions, which were then adjusted to a final protein concentration of 1.5 mg/mL for proteomics experiments and 1 mg/mL for gel-based ABPP experiments. The soluble lysate was prepared fresh from frozen pellets directly before each experiment. Protein concentration was determined using the Bio-Rad DC™ protein assay kit.
For each sample, 100 μL of streptavidin-agarose beads slurry (Pierce) was washed in 10 mL PBS and then resuspended in 5 mL PBS. The SDS-solubilized proteins were added to the suspension of streptavidin-agarose beads and the bead mixture was rotated for 3 h at ambient temperature. After incubation, the beads were pelleted by centrifugation (1,400 g, 3 min) and were washed (2×10 mL PBS and 2×10 mL water).
The beads were transferred to eppendorf tubes with 1 mL PBS, centrifuged (1,400 g, 3 min), and resuspended in PBS containing 6 M urea (500 μL). To this was added 10 mM DTT (25 μL of a 200 mM stock in water) and the beads were incubated at 65° C. for 15 mins. 20 mM iodoacetamide (25 μL of a 400 mM stock in water) was then added and allowed to react at 37° C. for 30 mins with shaking. The bead mixture was diluted with 900 μL PBS, pelleted by centrifugation (1,400 g, 3 min), and resuspended in 200 μL PBS. To this was added 1 mM CaCl2 ([…]) and trypsin (2 μg, Promega, sequencing grade) and the digestion was allowed to proceed overnight at 37° C. with shaking. The beads were separated from the digest with Micro Bio-Spin columns (Bio-Rad) by centrifugation (1,000 g, 1 min), washed (2×1 mL PBS and 2×1 mL water) and then transferred to fresh eppendorfs with 1 mL water. The washed beads were washed once further in 140 μL TEV buffer (50 mM Tris, pH 8, 0.5 mM EDTA, 1 mM DTT) and then resuspended in 140 μL TEV buffer. 5 μL TEV protease (80 μM) was added and the reactions were rotated overnight at 29° C. The TEV digest was separated from the beads with Micro Bio-Spin columns by centrifugation (1,400 g, 3 min) and the beads were washed once with water (100 μL). The samples were then acidified to a final concentration of 5% (v/v) formic acid and stored at −80° C. prior to analysis.

Chain of pro-CASP10 (Q92851 220-521): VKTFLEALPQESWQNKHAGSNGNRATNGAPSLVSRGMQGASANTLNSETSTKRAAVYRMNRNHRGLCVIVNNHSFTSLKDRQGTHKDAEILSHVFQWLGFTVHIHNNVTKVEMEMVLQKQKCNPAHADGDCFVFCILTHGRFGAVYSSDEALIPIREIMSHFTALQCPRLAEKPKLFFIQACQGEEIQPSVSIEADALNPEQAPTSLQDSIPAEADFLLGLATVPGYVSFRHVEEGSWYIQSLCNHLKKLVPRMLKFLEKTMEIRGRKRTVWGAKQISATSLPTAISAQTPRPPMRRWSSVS

activity against CASP10 (in words) (pro-CASP10): inactive against CASP10
IC50 (pro-CASP8): 15 µM
SMILES: O=C(c1ccc(N2CCOCC2)cc1)N1CCC[C@H](N(C(=O)CCl)c2ccccc2)C1 [63-S]

SMILES: Nc1ncnc2c1ncn2[C@@H]1O[C@H](COP(=O)(O)OP(=O)(O)OP(=O)(O)O)[C@@H](O)[C@H]1O [ATP]
inhibition of 18 labeling of IMPDH2 by nucleotides (IMPDH2 (C140)): inhibited
IC50 (IMPDH2 (C140); probe 18 25 μM, ATP 15 min pre-incubation, read-out: IC50 for blockade of 18 labeling of IMPDH2): 45 µM

inhibition of 18 labeling of IMPDH2 by fragments (IMPDH2 (C140); probe 18 25 μM): inhibited
SMILES: C=CC(=O)Nc1cc(C(F)(F)F)cc(C(F)(F)F)c1 [compound 14]
proteomic reactivity value (liganded cysteine rate) [1]: 3.4%

inhibition of 18 labeling of IMPDH2 by nucleotides (IMPDH2 (C140)): inhibited
SMILES: Nc1nc2c(ncn2[C@@H]2O[C@H](COP(=O)(O)OP(=O)(O)OP(=O)(O)O)[C@@H](O)[C@H]2O)c(=O)[nH]1 [GTP]

SMILES: CC(=O)Nc1cc(C(F)(F)F)cc(C(F)(F)F)c1 [compound 17]
relative proteomic reactivity (in words) ([1]; 500 μM, electrophiles on common 3,5-di(trifluoromethyl)phenyl group): negligible activity
proteomic reactivity value (liganded cysteine rate) [1]: < 0.2%
